As usually defined, the MBC is the smallest concentration meeting the test's criterion for killing. As a reminder, the MIC is the smallest concentration in the dilution series that meets the test's criterion for growth inhibition. Low readings indicate a more susceptible organism, high ones a less susceptible organism.

Experimental findings from patent publication US8906897B2, “Antimicrobial agents based on hemin derivatives” (Obschestvo S Ogranichennoi Otvetstvennostiyu …, priority 2009, dated 2014) are described below.

In data set [1] the test system is Bacillus subtilis BKM B-501. The experiment in a line: Antibacterial activity (MIC/MBC), serial dilutions in liquid MH medium. Format: cell-based. As to conditions: for MIC: 20 h, MH medium. The procedure, abridged:
(§1)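 Exponential-phase cultures were diluted to 5×10^4–1×10^5 cells/mL in Mueller-Hinton broth and exposed to twofold serial dilutions of compound at 37 °C with stirring. Growth was read as OD595, corrected for compound absorbance. MIC is the lowest concentration inhibiting growth, and MBC the lowest killing all cells.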

For data set [2], the system named is Enterococcus faecalis BKM B-871. The data set is described as above. Format: cell-based. The conditions noted are these: for MIC: 20 h, MH medium. In short, it runs like this:
as §1

Data set [3] relates to Micrococcus luteus BKM Ac-2230. The description is as above. The conditions noted are these: for MIC: 20 h, MH medium. Format: cell-based. In short, it runs like this: as §1
Data set [4] deals with Staphylococcus aureus 209P. The data set is described as above. Format: cell-based. The conditions noted are these: for MIC: 20 h, MH medium. In short, it runs like this: as §1
In data set [5] the test system is Enterococcus faecium No. 569. The data set is described as follows: Specific activity against resistant bacterial strains. Format: cell-based. The conditions noted are these: Ent. faecium 569; 24 h, 36° C.
Data set [6] is described as follows: Solubility of tested agents (water / DMSO). As to conditions: water or DMSO.

Each structure is given as a SMILES string. “Also recorded” adds a separate entry of the source.

Turning to `C=CC1=C(C)c2cc3[n-]c(cc4nc(cc5[n-]c(cc1n2)c(C)c5CCC(=O)N[C@@H](CCC(=O)N[C@@H](CCCNC(=N)N)C(=O)OC)C(=O)N[C@@H](CCCNC(=N)N)C(=O)OC)C(CCC(=O)N[C@@H](CCC(=O)N[C@@H](CCCNC(=N)N)C(=O)OC)C(=O)N[C@@H](CCCNC(=N)N)C(=O)OC)=C4C)c(C)c3C=C.[Cl-].[Fe+3]` [Compound XVIII, 6,7-bis[bis(N^α-L-Arginyl Methyl Ester)-L-Glutamyl]-Protohemin IX], the MBC entry in data set [1] was “Not reached”; in data set [2], >50^3 μM; in data set [3] it was 12.5 µM; in data set [4], >50^2 μM. The values for the MIC in data set [2] and in data set [3] were 12.5 µM and 3.1 µM, respectively. In addition, in data set [5], the “MICs for hemin derivatives against Gr+ strains” value (shortened to “MICs for hemin derivatives”) is 6.25e-06 M. Also, in data set [6], the “solubility (in words)” value is listed as “water-soluble”.
Consider `C=CC1=C(C)c2cc3[n-]c(cc4nc(cc5[n-]c(cc1n2)c(C)c5CCC(=O)N[C@@H](CCCNC(=N)N)C(=O)OC)C(CCC(=O)N[C@@H](CCCNC(=N)N)C(=O)OC)=C4C)c(C)c3C=C.[Cl-].[Fe+3]` [VII], for which the MBC in data set [1] came to 3.1 ± 0.8 µM; in data set [2], 400 µM; in data set [3] it was 6.3 µM; in data set [4] it was 200 µM. In data set [2], this molecule gave an MIC of 50 µM. In data set [5], the “MICs for hemin derivatives” value is >5e-05 M. In addition, in data set [6], the “solubility (in words)” value is recorded as “water-soluble”.
As to `C=CC1=C(C)c2cc3[n-]c(cc4[n-]c(cc5nc(cc1n2)C(C)=C5C=C)c(C)c4CCC(=O)O)c(CCC(=O)O)c3C.[Cl-].[Fe+3]` [Hem, hemin], the MBC in data set [1] was 50 ± 13 µM; in data set [2], >1000 µM; in data set [3], 25 µM; in data set [4], 200 µM. For the same molecule, the MIC in data set [1] worked out at 13 ± 4 µM; in data set [2], 1000 µM; in data set [3] it was 12.5 µM; in data set [4] it was 100 µM. In data set [5], the “MICs for hemin derivatives” value is >1e-05 M. Further, the “solubility (in words)” value in data set [6] is listed as “water-insoluble”.
For the molecule `C=CC1=C(C)c2cc3[n-]c(cc4nc(cc5[n-]c(cc1n2)c(C)c5CCC(=O)N[C@@H](CO)C(=O)OC)C(CCC(=O)N[C@@H](CO)C(=O)OC)=C4C)c(C)c3C=C.[Cl-].[Fe+3]` [VIII], the MBC in data set [1] stood at 9 ± 4 µM; in data set [2] it was 25 µM; in data set [3], 12.5 µM; in data set [4], 200 µM. Also, the MIC in data set [1] was determined as 6.3 ± 1.6 µM; in data set [2], 12.5 µM. Also, in data set [5], the “MICs for hemin derivatives” value is on record as >5.0. ×10^−5 M. In addition, the “solubility (in words)” value in data set [6] is on record as “DMSO-soluble; also recorded: water-insoluble”.
Regarding `C=CC1=C(C)c2cc3[n-]c(cc4nc(cc5[n-]c(cc1n2)c(C)c5CCC(=O)NCCO)C(CCC(=O)NCCO)=C4C)c(C)c3C=C.[Cl-].[Fe+3]` [Compound XIV, Protohemin IX 6,7-bis-N-(2-Hydroxyethyl)amide], the MBC in data set [1] came out at 6.3 ± 1.6 µM; in data set [2], 100 µM; in data set [3], 1.6 µM; in data set [4], 3.2 µM. In addition, the MIC is 1.6 ± 0.4 µM in data set [1], 25 µM in data set [2], 0.8 µM in data set [3] and 1.6 µM in data set [4]. Moreover, in data set [5], the “MICs for hemin derivatives” value was >5e-05 M. For the same molecule, the “solubility (in words)” value in data set [6] is “DMSO-soluble; also recorded: water-insoluble”.
